# Measurements from PubChem BioAssay AID2060605 (Molecular Pharmacology Branch, DTP, NCI, 2025).
# Tested on: 947758-054-R-J2-PDC spheroid growth, percent test/control
# Test: Anticancer human tumor 947758-054-R-J2-PDC patient-derived colon adenocarcinoma cell line growth inhibition [CLK]
# Details: spheroids with HUVEC and MSC; for IC50: curve of first compound; for viability, T/C: stronger effect = lower value
# Summary of the method: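 Multi-cell-type spheroids combined patient-derived tumor cells with HUVEC endothelial cells and human mesenchymal stem cells. Paired agents were dosed in half-log steps down from about clinical Cmax, or from 10 microM where Cmax was unknown.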
# [1] = second compound 0.0316 µM, first compound 0.0316 µM
# [2] = second compound 0.0316 µM, first compound 0.1 µM
# [3] = second compound 0.0316 µM, first compound 0.316 µM
# [4] = second compound 0.0316 µM, first compound 1 µM
# [5] = second compound 0.0316 µM, first compound 3.16 µM
# [6] = second compound 0.0316 µM, first compound 10 µM
# [7] = second compound 0.1 µM, first compound 0.0316 µM
# [8] = second compound 0.1 µM, first compound 0.1 µM
# [9] = second compound 0.1 µM, first compound 0.316 µM
# [10] = second compound 0.1 µM, first compound 1 µM
# [11] = second compound 0.1 µM, first compound 3.16 µM
# [12] = second compound 0.1 µM, first compound 10 µM
# [13] = second compound 0.316 µM, first compound 0.0316 µM
# [14] = second compound 0.316 µM, first compound 0.1 µM
# [15] = second compound 0.316 µM, first compound 0.316 µM
# [16] = second compound 0.316 µM, first compound 1 µM
# [17] = second compound 0.316 µM, first compound 3.16 µM
# [18] = second compound 0.316 µM, first compound 10 µM
# [19] = second compound 1 µM, first compound 0.0316 µM
# [20] = second compound 1 µM, first compound 0.1 µM
# [21] = second compound 1 µM, first compound 0.316 µM
# [22] = second compound 1 µM, first compound 1 µM
# [23] = second compound 1 µM, first compound 3.16 µM
# [24] = second compound 1 µM, first compound 10 µM
# [25] = second compound 3.16 µM, first compound 0.0316 µM
# [26] = second compound 3.16 µM, first compound 0.1 µM
# [27] = second compound 3.16 µM, first compound 0.316 µM
# [28] = second compound 3.16 µM, first compound 1 µM
# [29] = second compound 3.16 µM, first compound 3.16 µM
# [30] = second compound 3.16 µM, first compound 10 µM
# [31] = second compound 10 µM, first compound 0.0316 µM
# [32] = second compound 10 µM, first compound 0.1 µM
# [33] = second compound 10 µM, first compound 0.316 µM
# [34] = second compound 10 µM, first compound 1 µM
# [35] = second compound 10 µM, first compound 3.16 µM
# [36] = second compound 10 µM, first compound 10 µM
# 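Also: spheroids exposed to compounds for one week before readout.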
# 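For viability, T/C in this document: 100% = DMSO vehicle control wells.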
smiles,measurement,setting,value
O=C(c1cc(Cc2n[nH]c(=O)c3ccccc23)ccc1F)N1CCN(C(=O)C2CC2)CC1 + CN1CCN(c2cc(C(=O)Nc3cc4cc(-c5cnn(C)c5)ccc4cn3)ccn2)CC1,IC50,second compound 0.0316 µM,> 10 µM
same,IC50,second compound 0.1 µM,> 10 µM
same,IC50,second compound 0.316 µM,< 0.0316 µM
same,IC50,second compound 1 µM,< 0.0316 µM
same,IC50,second compound 3.16 µM,< 0.0316 µM
same,IC50,second compound 10 µM,< 0.0316 µM
same,"viability, T/C",[1],137%
same,"viability, T/C",[2],108%
same,"viability, T/C",[3],127%
same,"viability, T/C",[4],111%
same,"viability, T/C",[5],139%
same,"viability, T/C",[6],222%
same,"viability, T/C",[7],173%
same,"viability, T/C",[8],187%
same,"viability, T/C",[9],179%
same,"viability, T/C",[10],180%
same,"viability, T/C",[11],206%
same,"viability, T/C",[12],119%
same,"viability, T/C",[13],3.05%
same,"viability, T/C",[14],3.52%
same,"viability, T/C",[15],3.12%
same,"viability, T/C",[16],2.9%
same,"viability, T/C",[17],2.97%
same,"viability, T/C",[18],2.81%
same,"viability, T/C",[19],0.13%
same,"viability, T/C",[20],0.13%
same,"viability, T/C",[21],0.15%
same,"viability, T/C",[22],0.09%
same,"viability, T/C",[23],0.15%
same,"viability, T/C",[24],0.18%
same,"viability, T/C",[25],0.14%
same,"viability, T/C",[26],0.24%
same,"viability, T/C",[27],0.22%
same,"viability, T/C",[28],0.18%
same,"viability, T/C",[29],0.73%
same,"viability, T/C",[30],0.27%
same,"viability, T/C",[31],0.31%
same,"viability, T/C",[32],0.36%
same,"viability, T/C",[33],0.95%
same,"viability, T/C",[34],0.29%
same,"viability, T/C",[35],0.44%
same,"viability, T/C",[36],0.35%
O=c1[nH]cc(F)c(=O)[nH]1 + CN1CCN(c2cc(C(=O)Nc3cc4cc(-c5cnn(C)c5)ccc4cn3)ccn2)CC1,IC50,second compound 0.0316 µM,8.26 µM
same,IC50,second compound 0.1 µM,6.15 µM
same,IC50,second compound 0.316 µM,< 0.0316 µM
same,IC50,second compound 1 µM,< 0.0316 µM
same,IC50,second compound 3.16 µM,< 0.0316 µM
same,IC50,second compound 10 µM,< 0.0316 µM
same,"viability, T/C",[1],124%
same,"viability, T/C",[2],113%
same,"viability, T/C",[3],103%
same,"viability, T/C",[4],143%
same,"viability, T/C",[5],83.8%
same,"viability, T/C",[6],43.2%
same,"viability, T/C",[7],150%
same,"viability, T/C",[8],167%
same,"viability, T/C",[9],159%
same,"viability, T/C",[10],166%
same,"viability, T/C",[11],69.1%
same,"viability, T/C",[12],36%
same,"viability, T/C",[13],4.49%
same,"viability, T/C",[14],7.16%
same,"viability, T/C",[15],4.59%
same,"viability, T/C",[16],5.49%
same,"viability, T/C",[17],4.38%
same,"viability, T/C",[18],3.92%
same,"viability, T/C",[19],0.14%
same,"viability, T/C",[20],0.31%
same,"viability, T/C",[21],1.1%
same,"viability, T/C",[22],0.1%
same,"viability, T/C",[23],2.13%
same,"viability, T/C",[24],0.12%
same,"viability, T/C",[25],0.24%
same,"viability, T/C",[26],1.5%
same,"viability, T/C",[27],0.14%
same,"viability, T/C",[28],0.16%
same,"viability, T/C",[29],0.18%
same,"viability, T/C",[30],2.35%
same,"viability, T/C",[31],0.67%
same,"viability, T/C",[32],0.21%
same,"viability, T/C",[33],0.25%
same,"viability, T/C",[34],0.21%
same,"viability, T/C",[35],1.51%
same,"viability, T/C",[36],0.31%
